Reference: PubChem BioAssay AID2060890 (Molecular Pharmacology Branch, DTP, NCI, 2025)

Test system: LG0703-F948-PDC complex spheroid viability
Experiment: Anticancer human tumor LG0703-F948-PDC patient-derived lung adenocarcinoma cell line growth inhibition [RAS]
Conditions: for IC50: curve of first compound; for viability, T/C: stronger effect = lower value
Procedure, shortened: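 Tumour cells grown as complex spheroids with HUVEC endothelial cells and mesenchymal stem cells, treated with RAS pathway inhibitor combinations. Each agent spans half-log steps from near clinical Cmax, or 10 microM where Cmax is unknown.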

[1] = second compound 0.0316 µM, first compound 0.00316 µM
[2] = second compound 0.0316 µM, first compound 0.01 µM
[3] = second compound 0.0316 µM, first compound 0.0316 µM
[4] = second compound 0.0316 µM, first compound 0.1 µM
[5] = second compound 0.0316 µM, first compound 0.316 µM
[6] = second compound 0.0316 µM, first compound 1 µM
[7] = second compound 0.1 µM, first compound 0.00316 µM
[8] = second compound 0.1 µM, first compound 0.01 µM
[9] = second compound 0.1 µM, first compound 0.0316 µM
[10] = second compound 0.1 µM, first compound 0.1 µM
[11] = second compound 0.1 µM, first compound 0.316 µM
[12] = second compound 0.1 µM, first compound 1 µM
[13] = second compound 0.316 µM, first compound 0.00316 µM
[14] = second compound 0.316 µM, first compound 0.01 µM
[15] = second compound 0.316 µM, first compound 0.0316 µM
[16] = second compound 0.316 µM, first compound 0.1 µM
[17] = second compound 0.316 µM, first compound 0.316 µM
[18] = second compound 0.316 µM, first compound 1 µM
[19] = second compound 1 µM, first compound 0.00316 µM
[20] = second compound 1 µM, first compound 0.01 µM
[21] = second compound 1 µM, first compound 0.0316 µM
[22] = second compound 1 µM, first compound 0.1 µM
[23] = second compound 1 µM, first compound 0.316 µM
[24] = second compound 1 µM, first compound 1 µM
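Further: spheroids exposed to agents for 7 days.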
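Wherever viability, T/C is given: 100% = DMSO vehicle wells.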

Nc1ccn(C2OC(CO)C(O)C2(F)F)c(=O)n1 (stereo unspecified) + C=CC(=O)N1CCN(c2nc(OCC3CCCN3C)nc3c(F)c(-c4nc(N)cc(C)c4C(F)(F)F)c(Cl)cc23)C(C)C1
IC50 (second compound 0.00316 µM): 4.92 nM
IC50 (second compound 0.01 µM): 4.93 nM
IC50 (second compound 0.0316 µM): 5.48 nM
IC50 (second compound 0.1 µM): 5.32 nM
IC50 (second compound 0.316 µM): 5.96 nM
IC50 (second compound 1 µM): 5.85 nM
viability, T/C (second compound 0.00316 µM, first compound 0.00316 µM): 57.6%
viability, T/C (second compound 0.00316 µM, first compound 0.01 µM): 38.4%
viability, T/C (second compound 0.00316 µM, first compound 0.0316 µM): 27.3%
viability, T/C (second compound 0.00316 µM, first compound 0.1 µM): 28.2%
viability, T/C (second compound 0.00316 µM, first compound 0.316 µM): 29.4%
viability, T/C (second compound 0.00316 µM, first compound 1 µM): 6.7%
viability, T/C (second compound 0.01 µM, first compound 0.00316 µM): 58.7%
viability, T/C (second compound 0.01 µM, first compound 0.01 µM): 36.9%
viability, T/C (second compound 0.01 µM, first compound 0.0316 µM): 25.1%
viability, T/C (second compound 0.01 µM, first compound 0.1 µM): 25.1%
viability, T/C (second compound 0.01 µM, first compound 0.316 µM): 24.6%
viability, T/C (second compound 0.01 µM, first compound 1 µM): 21.7%
viability, T/C [1]: 61.6%
viability, T/C [2]: 36.7%
viability, T/C [3]: 30.1%
viability, T/C [4]: 24%
viability, T/C [5]: 24.1%
viability, T/C [6]: 23.3%
viability, T/C [7]: 62.1%
viability, T/C [8]: 35.4%
viability, T/C [9]: 26.8%
viability, T/C [10]: 26.3%
viability, T/C [11]: 26.8%
viability, T/C [12]: 22.7%
viability, T/C [13]: 74.2%
viability, T/C [14]: 30%
viability, T/C [15]: 29.9%
viability, T/C [16]: 25.3%
viability, T/C [17]: 27.1%
viability, T/C [18]: 29.1%
viability, T/C [19]: 63%
viability, T/C [20]: 38.3%
viability, T/C [21]: 29%
viability, T/C [22]: 30.1%
viability, T/C [23]: 25.2%
viability, T/C [24]: 21.4%

CCc1c2c(nc3ccc(O)cc13)-c1cc3c(c(=O)n1C2)COC(=O)[C@]3(O)CC + C=CC(=O)N1CCN(c2nc(OCC3CCCN3C)nc3c(F)c(-c4nc(N)cc(C)c4C(F)(F)F)c(Cl)cc23)C(C)C1
IC50 (second compound 0.00316 µM): 41.8 nM
IC50 (second compound 0.01 µM): 51.3 nM
IC50 (second compound 0.0316 µM): 37.6 nM
IC50 (second compound 0.1 µM): 30.5 nM
IC50 (second compound 0.316 µM): 44.4 nM
IC50 (second compound 1 µM): 50.8 nM
viability, T/C (second compound 0.00316 µM, first compound 0.000949 µM): 102%
viability, T/C (second compound 0.00316 µM, first compound 0.003 µM): 99.9%
viability, T/C (second compound 0.00316 µM, first compound 0.00949 µM): 77.8%
viability, T/C (second compound 0.00316 µM, first compound 0.03 µM): 54.5%
viability, T/C (second compound 0.00316 µM, first compound 0.0949 µM): 38.3%
viability, T/C (second compound 0.00316 µM, first compound 0.3 µM): 22.9%
viability, T/C (second compound 0.01 µM, first compound 0.000949 µM): 105%
viability, T/C (second compound 0.01 µM, first compound 0.003 µM): 87.5%
viability, T/C (second compound 0.01 µM, first compound 0.00949 µM): 80.7%
viability, T/C (second compound 0.01 µM, first compound 0.03 µM): 61.3%
viability, T/C (second compound 0.01 µM, first compound 0.0949 µM): 36.4%
viability, T/C (second compound 0.01 µM, first compound 0.3 µM): 20.7%
viability, T/C (second compound 0.0316 µM, first compound 0.000949 µM): 102%
viability, T/C (second compound 0.0316 µM, first compound 0.003 µM): 106%
viability, T/C (second compound 0.0316 µM, first compound 0.00949 µM): 92.1%
viability, T/C (second compound 0.0316 µM, first compound 0.03 µM): 53%
viability, T/C (second compound 0.0316 µM, first compound 0.0949 µM): 34%
viability, T/C (second compound 0.0316 µM, first compound 0.3 µM): 21%
viability, T/C (second compound 0.1 µM, first compound 0.000949 µM): 97.8%
viability, T/C (second compound 0.1 µM, first compound 0.003 µM): 103%
viability, T/C (second compound 0.1 µM, first compound 0.00949 µM): 63.4%
viability, T/C (second compound 0.1 µM, first compound 0.03 µM): 53.1%
viability, T/C (second compound 0.1 µM, first compound 0.0949 µM): 35.8%
viability, T/C (second compound 0.1 µM, first compound 0.3 µM): 21.2%
viability, T/C (second compound 0.316 µM, first compound 0.000949 µM): 104%
viability, T/C (second compound 0.316 µM, first compound 0.003 µM): 103%
viability, T/C (second compound 0.316 µM, first compound 0.00949 µM): 83.6%
viability, T/C (second compound 0.316 µM, first compound 0.03 µM): 58.8%
viability, T/C (second compound 0.316 µM, first compound 0.0949 µM): 34.4%
viability, T/C (second compound 0.316 µM, first compound 0.3 µM): 24.3%
viability, T/C (second compound 1 µM, first compound 0.000949 µM): 106%
viability, T/C (second compound 1 µM, first compound 0.003 µM): 98.8%
viability, T/C (second compound 1 µM, first compound 0.00949 µM): 91%
viability, T/C (second compound 1 µM, first compound 0.03 µM): 57.3%
viability, T/C (second compound 1 µM, first compound 0.0949 µM): 39.8%
viability, T/C (second compound 1 µM, first compound 0.3 µM): 20.1%

C=CC(=O)N1CCN(c2nc(OCC3CCCN3C)nc3c(F)c(-c4nc(N)cc(C)c4C(F)(F)F)c(Cl)cc23)C(C)C1 (stereo unspecified) + C#Cc1c(F)ccc2cc(O)cc(-c3ncc4c(N5CC6CCC(C5)N6)nc(OCC56CCCN5CC(F)C6)nc4c3F)c12
IC50 (second compound 0.0316 µM): > 1000 nM
IC50 (second compound 0.1 µM): > 1000 nM
IC50 (second compound 0.316 µM): > 1000 nM
IC50 (second compound 1 µM): > 1000 nM
IC50 (second compound 3.16 µM): > 1000 nM
IC50 (second compound 10 µM): 197 nM
viability, T/C [1]: 127%
viability, T/C [2]: 87.8%
viability, T/C [3]: 111%
viability, T/C [4]: 120%
viability, T/C [5]: 109%
viability, T/C [6]: 85.2%
viability, T/C [7]: 98.7%
viability, T/C [8]: 110%
viability, T/C [9]: 94.9%
viability, T/C [10]: 104%
viability, T/C [11]: 109%
viability, T/C [12]: 97.8%
viability, T/C [13]: 89.5%
viability, T/C [14]: 82.2%
viability, T/C [15]: 86.1%
viability, T/C [16]: 72.6%
viability, T/C [17]: 82%
viability, T/C [18]: 84.6%
viability, T/C [19]: 63.7%
viability, T/C [20]: 76.6%
viability, T/C [21]: 79.3%
viability, T/C [22]: 66.2%
viability, T/C [23]: 73.9%
viability, T/C [24]: 75%
viability, T/C (second compound 3.16 µM, first compound 0.00316 µM): 61.8%
viability, T/C (second compound 3.16 µM, first compound 0.01 µM): 57.8%
viability, T/C (second compound 3.16 µM, first compound 0.0316 µM): 75.3%
viability, T/C (second compound 3.16 µM, first compound 0.1 µM): 63.6%
viability, T/C (second compound 3.16 µM, first compound 0.316 µM): 59.3%
viability, T/C (second compound 3.16 µM, first compound 1 µM): 62.9%
viability, T/C (second compound 10 µM, first compound 0.00316 µM): 51.9%
viability, T/C (second compound 10 µM, first compound 0.01 µM): 54.2%
viability, T/C (second compound 10 µM, first compound 0.0316 µM): 54.1%
viability, T/C (second compound 10 µM, first compound 0.1 µM): 47.5%
viability, T/C (second compound 10 µM, first compound 0.316 µM): 50.7%
viability, T/C (second compound 10 µM, first compound 1 µM): 47%
